From ChEMBL document CHEMBL4387741, “Optimization of novel reversible Bruton's tyrosine kinase inhibitors identified using Tethering-fragment-based screens” (Bioorg Med Chem, 2019)

Experiments:
[1] = biological target: Testis-specific serine/threonine-protein kinase 1 (Homo sapiens) (UniProt Q9BXA7); test: Inhibition of wild-type human full length TSSK1B (M1 to Q367 residues) expressed in bacterial expression system at 1 uM by Kinomescan method relative to control
[2] = biological target: Phosphatidylinositol 3-kinase C2 domain-containing subunit gamma (Homo sapiens) (UniProt O75747); test: Inhibition of wild-type human partial length PIK3C2G (M1 to I1446 residues) expressed in mammalian expression system at 1 uM by Kinomescan method relative to control
[3] = biological target: Mitogen-activated protein kinase kinase kinase kinase 2 (Homo sapiens) (UniProt Q12851); test: Inhibition of wild-type human partial length MAP4K2 (M1 to G318 residues) expressed in mammalian expression system at 1 uM by Kinomescan method relative to control
Mitogen-activated protein kinase kinase kinase kinase 2 (Homo sapiens), sequence (Q12851 whole entry, the tested form may be a part): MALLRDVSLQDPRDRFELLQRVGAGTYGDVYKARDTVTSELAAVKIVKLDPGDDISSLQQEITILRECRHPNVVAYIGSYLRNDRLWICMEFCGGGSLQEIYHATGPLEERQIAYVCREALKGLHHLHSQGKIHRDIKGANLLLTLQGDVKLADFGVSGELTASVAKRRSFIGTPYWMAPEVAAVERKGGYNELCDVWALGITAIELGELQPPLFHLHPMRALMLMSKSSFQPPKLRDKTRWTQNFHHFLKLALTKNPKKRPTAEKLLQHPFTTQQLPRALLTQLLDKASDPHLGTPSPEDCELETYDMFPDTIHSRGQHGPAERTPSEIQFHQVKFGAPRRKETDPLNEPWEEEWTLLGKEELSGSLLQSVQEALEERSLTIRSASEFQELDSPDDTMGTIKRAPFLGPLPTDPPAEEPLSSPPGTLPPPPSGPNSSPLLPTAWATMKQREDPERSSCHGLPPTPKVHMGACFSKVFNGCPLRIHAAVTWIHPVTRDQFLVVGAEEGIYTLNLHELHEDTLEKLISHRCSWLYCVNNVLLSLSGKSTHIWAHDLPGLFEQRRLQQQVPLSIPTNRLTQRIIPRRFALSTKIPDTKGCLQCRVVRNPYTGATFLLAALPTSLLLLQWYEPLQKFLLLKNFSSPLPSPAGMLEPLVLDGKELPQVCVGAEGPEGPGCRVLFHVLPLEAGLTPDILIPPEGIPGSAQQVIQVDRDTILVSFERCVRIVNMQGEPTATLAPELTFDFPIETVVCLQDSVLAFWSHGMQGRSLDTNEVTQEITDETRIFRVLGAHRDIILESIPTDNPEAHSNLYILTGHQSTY

[4] = system: Mast/stem cell growth factor receptor Kit (Homo sapiens), P10721 [A829P]; test: Inhibition of human partial length KIT A829P mutant (I571 to D952 residues) expressed in mammalian expression system at 1 uM by Kinomescan method relative to control
[5] = Protein binding in rat plasma assessed as unbound fraction at 2 uM by rapid equilibrium dialysis method; assay type: ADME, cell-free
[6] = biological target: Uncharacterized serine/threonine-protein kinase SBK3 (Homo sapiens) (UniProt P0C264); test: Inhibition of wild-type human partial length SgK110 (L22 to R329 residues) expressed in bacterial expression system at 1 uM by Kinomescan method relative to control
[7] = biological target: cGMP-dependent protein kinase 2 (Homo sapiens) (UniProt Q13237); test: Inhibition of wild-type human partial length PRKG2 (S422 to F762 residues) expressed in mammalian expression system at 1 uM by Kinomescan method relative to control
[8] = system: Proto-oncogene tyrosine-protein kinase receptor Ret (Homo sapiens), P07949 [V804M]; test: Inhibition of human partial length RET V804M mutant (E713 to D1014 residues) expressed in bacterial expression system at 1 uM by Kinomescan method relative to control
Proto-oncogene tyrosine-protein kinase receptor Ret (Homo sapiens), P07949 [V804M], sequence (P07949 whole entry V804M, the tested form may be a part): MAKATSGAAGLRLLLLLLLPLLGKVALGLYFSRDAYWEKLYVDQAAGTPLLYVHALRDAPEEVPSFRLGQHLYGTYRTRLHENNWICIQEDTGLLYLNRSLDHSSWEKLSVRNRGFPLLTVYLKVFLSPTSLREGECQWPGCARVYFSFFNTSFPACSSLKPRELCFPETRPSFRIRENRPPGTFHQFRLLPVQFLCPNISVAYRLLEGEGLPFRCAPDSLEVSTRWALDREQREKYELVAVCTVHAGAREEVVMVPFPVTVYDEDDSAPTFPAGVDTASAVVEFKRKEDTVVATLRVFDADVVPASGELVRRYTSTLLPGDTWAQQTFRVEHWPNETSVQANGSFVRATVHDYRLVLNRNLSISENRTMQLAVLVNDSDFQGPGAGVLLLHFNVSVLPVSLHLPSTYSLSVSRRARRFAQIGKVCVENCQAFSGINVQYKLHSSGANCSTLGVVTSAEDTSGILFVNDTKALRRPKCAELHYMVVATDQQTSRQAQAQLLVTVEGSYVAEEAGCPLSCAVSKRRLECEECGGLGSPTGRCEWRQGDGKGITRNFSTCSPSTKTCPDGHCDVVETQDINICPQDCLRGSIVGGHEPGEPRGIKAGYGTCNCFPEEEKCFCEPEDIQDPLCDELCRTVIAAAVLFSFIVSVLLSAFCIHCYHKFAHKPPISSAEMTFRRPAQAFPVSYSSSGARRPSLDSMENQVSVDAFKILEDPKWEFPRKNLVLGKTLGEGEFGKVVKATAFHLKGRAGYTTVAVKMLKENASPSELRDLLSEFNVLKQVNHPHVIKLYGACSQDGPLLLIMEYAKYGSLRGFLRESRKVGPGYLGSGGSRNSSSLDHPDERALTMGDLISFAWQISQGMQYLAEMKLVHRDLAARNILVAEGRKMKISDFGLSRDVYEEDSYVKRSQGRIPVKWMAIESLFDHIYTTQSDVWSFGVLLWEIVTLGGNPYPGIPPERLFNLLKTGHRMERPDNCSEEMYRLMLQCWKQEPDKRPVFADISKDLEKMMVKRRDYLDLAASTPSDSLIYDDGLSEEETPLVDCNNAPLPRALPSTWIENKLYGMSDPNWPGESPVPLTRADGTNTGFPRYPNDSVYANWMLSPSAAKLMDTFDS

[9] = biological target: Mitogen-activated protein kinase kinase kinase 12 (Homo sapiens) (UniProt Q12852); test: Inhibition of wild-type human full length DLK (M1 to P859 residues) expressed in mammalian expression system at 1 uM by Kinomescan method relative to control
[10] = biological target: Serine/threonine-protein kinase PAK 6 (Homo sapiens) (UniProt Q9NQU5); test: Inhibition of wild-type human partial length PAK6 (N298 to C681 residues) expressed in bacterial expression system at 1 uM by Kinomescan method relative to control
[11] = biological target: Serine/threonine-protein kinase RIO2 (Homo sapiens) (UniProt Q9BVS4); test: Inhibition of wild-type human partial length RIOK2 (M1 to D313 residues) expressed in mammalian expression system at 1 uM by Kinomescan method relative to control
Serine/threonine-protein kinase RIO2 (Homo sapiens), sequence (Q9BVS4 whole entry, looked up, the tested form may be a part): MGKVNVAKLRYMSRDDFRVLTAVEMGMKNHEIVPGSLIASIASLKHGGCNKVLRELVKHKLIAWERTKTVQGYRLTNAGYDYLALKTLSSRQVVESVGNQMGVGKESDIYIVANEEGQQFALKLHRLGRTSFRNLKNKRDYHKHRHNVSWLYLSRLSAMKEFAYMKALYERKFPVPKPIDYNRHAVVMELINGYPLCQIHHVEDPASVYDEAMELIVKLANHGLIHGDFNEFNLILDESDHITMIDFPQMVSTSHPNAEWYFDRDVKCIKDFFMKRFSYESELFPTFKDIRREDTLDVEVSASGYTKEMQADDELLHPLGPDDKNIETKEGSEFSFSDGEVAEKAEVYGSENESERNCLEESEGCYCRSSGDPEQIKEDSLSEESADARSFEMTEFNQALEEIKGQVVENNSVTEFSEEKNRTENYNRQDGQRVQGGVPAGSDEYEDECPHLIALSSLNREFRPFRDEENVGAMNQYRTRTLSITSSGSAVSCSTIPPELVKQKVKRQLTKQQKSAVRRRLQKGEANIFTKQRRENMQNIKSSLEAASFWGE

[12] = biological target: Serine/threonine-protein kinase 24 (Homo sapiens) (UniProt Q9Y6E0); test: Inhibition of wild-type human partial length MST3 (A30 to S311 residues) expressed in bacterial expression system at 1 uM by Kinomescan method relative to control
[13] = biological target: Serine/threonine-protein kinase Nek10 (Homo sapiens) (UniProt Q6ZWH5); test: Inhibition of wild-type human partial length NEK10 (L488 to R809 residues) expressed in mammalian expression system at 1 uM by Kinomescan method relative to control
[14] = biological target: Non-receptor tyrosine-protein kinase TYK2 (Homo sapiens) (UniProt P29597); test: Inhibition of wild-type human partial length TYK2 JH2 pseudokinase domain (G556 to D888 residues) expressed in mammalian expression system at 1 uM by Kinomescan method relative to control
Non-receptor tyrosine-protein kinase TYK2 (Homo sapiens), sequence (P29597 whole entry, the tested form may be a part): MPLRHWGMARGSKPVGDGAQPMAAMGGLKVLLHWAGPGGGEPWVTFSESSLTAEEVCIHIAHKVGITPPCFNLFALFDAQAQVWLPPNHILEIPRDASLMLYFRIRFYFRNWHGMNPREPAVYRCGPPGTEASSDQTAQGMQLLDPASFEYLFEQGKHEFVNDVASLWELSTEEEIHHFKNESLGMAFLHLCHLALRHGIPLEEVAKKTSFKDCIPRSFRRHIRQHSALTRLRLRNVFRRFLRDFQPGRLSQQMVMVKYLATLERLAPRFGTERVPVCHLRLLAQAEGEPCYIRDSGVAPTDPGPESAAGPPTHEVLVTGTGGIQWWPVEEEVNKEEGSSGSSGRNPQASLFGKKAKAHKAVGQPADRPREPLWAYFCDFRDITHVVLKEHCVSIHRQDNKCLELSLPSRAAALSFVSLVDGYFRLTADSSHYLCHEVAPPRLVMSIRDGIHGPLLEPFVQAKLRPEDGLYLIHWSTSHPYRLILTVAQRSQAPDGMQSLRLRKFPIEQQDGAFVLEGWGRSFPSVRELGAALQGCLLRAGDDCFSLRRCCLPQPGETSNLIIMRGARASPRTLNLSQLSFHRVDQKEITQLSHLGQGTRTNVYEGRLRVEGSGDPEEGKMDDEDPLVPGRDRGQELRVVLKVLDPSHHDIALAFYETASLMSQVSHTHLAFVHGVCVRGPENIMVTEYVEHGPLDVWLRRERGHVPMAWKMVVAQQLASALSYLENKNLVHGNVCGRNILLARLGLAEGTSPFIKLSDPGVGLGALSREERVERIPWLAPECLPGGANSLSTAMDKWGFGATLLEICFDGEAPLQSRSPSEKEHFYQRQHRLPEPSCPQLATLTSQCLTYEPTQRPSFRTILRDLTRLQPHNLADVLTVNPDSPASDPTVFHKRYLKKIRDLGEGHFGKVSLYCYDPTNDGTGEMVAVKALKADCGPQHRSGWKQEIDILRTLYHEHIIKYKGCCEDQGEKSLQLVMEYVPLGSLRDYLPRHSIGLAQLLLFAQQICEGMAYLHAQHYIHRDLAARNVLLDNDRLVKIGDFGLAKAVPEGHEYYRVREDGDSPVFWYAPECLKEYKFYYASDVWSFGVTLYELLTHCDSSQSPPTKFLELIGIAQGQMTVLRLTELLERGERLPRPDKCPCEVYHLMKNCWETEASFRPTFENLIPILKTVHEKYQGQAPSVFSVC

[15] = system: Proto-oncogene tyrosine-protein kinase receptor Ret (Homo sapiens), P07949 [V804M]; test: Inhibition of human partial length RET V804M mutant (E713 to D1014 residues) expressed in bacterial expression system at 10 uM by Kinomescan method relative to control
[16] = biological target: Glycogen synthase kinase-3 alpha (Homo sapiens) (UniProt P49840); test: Inhibition of wild-type human full length GSK3A (M1 to S483 residues) expressed in bacterial expression system at 10 uM by Kinomescan method relative to control
[17] = biological target: Ephrin type-A receptor 7 (Homo sapiens) (UniProt Q15375); test: Inhibition of wild-type human partial length EPHA7 (Y608 to S912 residues) expressed in bacterial expression system at 10 uM by Kinomescan method relative to control
[18] = biological target: Calcium/calmodulin-dependent protein kinase kinase 2 (Homo sapiens) (UniProt Q96RR4); test: Inhibition of wild-type human partial length CAMKK2 (D65 to V471 residues) expressed in bacterial expression system at 10 uM by Kinomescan method relative to control
[19] = biological target: Phosphatidylinositol 4-phosphate 5-kinase type-1 alpha (Homo sapiens) (UniProt Q99755); test: Inhibition of wild-type human full length PIP5K1A (M1 to H562 residues) expressed in bacterial expression system at 10 uM by Kinomescan method relative to control
[20] = biological target: Serine/threonine-protein kinase SIK1 (Homo sapiens) (UniProt P57059); test: Inhibition of wild-type human partial length SIK (M1 to Y304 residues) expressed in bacterial expression system at 10 uM by Kinomescan method relative to control
[21] = system: Proto-oncogene tyrosine-protein kinase receptor Ret (Homo sapiens), P07949 [M918T]; test: Inhibition of human partial length RET M918T mutant (E713 to D1014 residues) expressed in bacterial expression system at 10 uM by Kinomescan method relative to control
Proto-oncogene tyrosine-protein kinase receptor Ret (Homo sapiens), P07949 [M918T], sequence (P07949 whole entry M918T, the tested form may be a part): as the sequence (P07949 whole entry V804M, the tested form may be a part) above, with M804V, M918T counted along it

[22] = biological target: Serine/threonine-protein kinase mTOR (Homo sapiens) (UniProt P42345); test: Inhibition of wild-type human partial length MTOR (L1382 to W2549 residues) expressed in mammalian expression system at 10 uM by Kinomescan method relative to control
[23] = biological target: Cyclin-dependent kinase 16 (Homo sapiens) (UniProt Q00536); test: Inhibition of wild-type human partial length PCTK1 (G160 to A474 residues) expressed in mammalian expression system at 10 uM by Kinomescan method relative to control
[24] = biological target: Glycogen synthase kinase-3 beta (Homo sapiens) (UniProt P49841); test: Inhibition of wild-type human full length GSK3B (M1 to T433 residues) expressed in mammalian expression system at 10 uM by Kinomescan method relative to control
[25] = system: Mast/stem cell growth factor receptor Kit (Homo sapiens), P10721 [D816V]; test: Inhibition of human partial length KIT D816V mutant (I571 to D952 residues) expressed in bacterial expression system at 10 uM by Kinomescan method relative to control
[26] = system: Epidermal growth factor receptor (Homo sapiens), P00533 [L861Q]; test: Inhibition of human partial length EGFR L861Q mutant (R669 to V1011 residues) expressed in bacterial expression system at 10 uM by Kinomescan method relative to control
[27] = biological target: Serine/threonine-protein kinase PLK1 (Homo sapiens) (UniProt P53350); test: Inhibition of wild-type human partial length PLK1 (A33 to F325 residues) expressed in mammalian expression system at 10 uM by Kinomescan method relative to control

Compound: O=C(Nc1cccc([C@@H]2CN(c3ncnc4[nH]ccc34)CCN2CCO)c1)Nc1c(F)cccc1N1CCCC1
- inhibition [1]: 100%
- inhibition [2]: 95%
- inhibition [3]: 82%
- inhibition [4]: 28%
- Fu [5]: 0.13%
- inhibition [6]: 100%
- inhibition [7]: 100%
- inhibition [8]: 0.95%
- inhibition [9]: 79%
- inhibition [10]: 100%
- inhibition [11]: 92%
- inhibition [12]: 73%
- inhibition [13]: 26%
- inhibition [14]: 71%

Compound: O=C(Nc1cccc([C@H]2CCCN(c3ncnc4[nH]ccc34)C2)c1)Nc1ccccc1N1CCCC1
- inhibition [15]: 0.65%
- inhibition [16]: 100%
- inhibition [17]: 72%
- inhibition [18]: 92%
- inhibition [19]: 5.1%
- inhibition [20]: 48%
- inhibition [21]: 0%
- inhibition [22]: 98%
- inhibition [23]: 70%
- inhibition [24]: 77%
- inhibition [25]: 0.9%
- inhibition [26]: 85%
- inhibition [27]: 72%
